Laboratory results reported in publication PMC1084349 (BMC Neuroscience, 2005).
Where a SMILES comes first, the peptide text is derived from it.

Key:
[1] = target: T1, rTas1r2-hTAS1R3 (UniProt Q7RTX0+Q9Z0R7); experiment: Calcium mobilization (FLIPR), interspecies combination; conditions: asp 15 mM; cyc 30 mM; neo 0.1 mM; sac 10 mM; suc 100 mM; stev 1 mM; markedly reduced amplitudes
T1 sequence (Q9Z0R7 20-843): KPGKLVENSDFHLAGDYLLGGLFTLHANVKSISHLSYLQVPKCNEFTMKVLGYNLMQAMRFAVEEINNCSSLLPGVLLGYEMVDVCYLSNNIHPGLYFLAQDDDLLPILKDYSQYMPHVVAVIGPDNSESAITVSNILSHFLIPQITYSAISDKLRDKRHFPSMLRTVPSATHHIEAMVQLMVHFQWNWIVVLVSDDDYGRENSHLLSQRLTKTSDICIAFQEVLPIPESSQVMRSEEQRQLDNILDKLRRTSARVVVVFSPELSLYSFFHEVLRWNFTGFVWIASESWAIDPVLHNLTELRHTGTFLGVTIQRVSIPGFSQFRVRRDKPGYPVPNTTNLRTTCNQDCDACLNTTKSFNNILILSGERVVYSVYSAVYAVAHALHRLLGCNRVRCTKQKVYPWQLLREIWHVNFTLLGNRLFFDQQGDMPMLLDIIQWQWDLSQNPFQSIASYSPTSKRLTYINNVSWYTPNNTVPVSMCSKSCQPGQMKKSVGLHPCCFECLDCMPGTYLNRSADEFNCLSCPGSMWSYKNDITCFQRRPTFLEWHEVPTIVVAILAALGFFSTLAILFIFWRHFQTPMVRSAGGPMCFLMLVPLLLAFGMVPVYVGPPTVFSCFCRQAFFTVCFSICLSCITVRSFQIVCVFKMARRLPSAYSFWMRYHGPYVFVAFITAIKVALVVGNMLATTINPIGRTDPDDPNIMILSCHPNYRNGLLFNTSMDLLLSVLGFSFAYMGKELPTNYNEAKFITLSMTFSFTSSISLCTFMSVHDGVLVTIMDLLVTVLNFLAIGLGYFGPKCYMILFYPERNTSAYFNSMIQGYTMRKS
T1 sequence (Q7RTX0 21-852): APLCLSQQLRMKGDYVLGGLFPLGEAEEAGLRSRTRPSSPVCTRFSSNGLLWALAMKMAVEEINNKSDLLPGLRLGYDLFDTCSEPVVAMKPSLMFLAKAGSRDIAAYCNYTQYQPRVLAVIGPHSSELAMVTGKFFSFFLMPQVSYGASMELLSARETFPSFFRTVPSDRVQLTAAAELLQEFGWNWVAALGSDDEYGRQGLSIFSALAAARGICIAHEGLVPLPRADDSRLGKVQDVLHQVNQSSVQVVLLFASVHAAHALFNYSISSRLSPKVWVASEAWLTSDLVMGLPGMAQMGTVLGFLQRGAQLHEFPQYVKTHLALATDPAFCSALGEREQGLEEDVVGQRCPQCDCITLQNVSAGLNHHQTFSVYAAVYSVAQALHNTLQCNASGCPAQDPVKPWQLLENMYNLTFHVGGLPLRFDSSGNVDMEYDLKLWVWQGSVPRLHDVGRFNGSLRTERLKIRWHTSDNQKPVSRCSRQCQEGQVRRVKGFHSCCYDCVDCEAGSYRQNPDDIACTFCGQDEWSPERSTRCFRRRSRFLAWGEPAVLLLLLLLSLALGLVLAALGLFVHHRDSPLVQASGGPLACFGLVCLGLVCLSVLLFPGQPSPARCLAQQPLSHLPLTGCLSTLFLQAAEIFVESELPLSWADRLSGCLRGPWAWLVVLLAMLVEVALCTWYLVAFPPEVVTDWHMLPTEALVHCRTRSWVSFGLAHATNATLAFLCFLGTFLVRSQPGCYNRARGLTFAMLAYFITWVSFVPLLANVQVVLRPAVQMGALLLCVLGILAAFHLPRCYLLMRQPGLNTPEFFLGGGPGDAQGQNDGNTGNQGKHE

[2] = target: T2, hTAS1R2-hTAS1R3 (Homo sapiens, UniProt Q7RTX0+Q8TE23); experiment: Calcium mobilization (FLIPR) in transfected HEK293T-Gα16gust44 cells, human sweet receptor; conditions: asp 15 mM; cyc 30 mM; neo 0.1 mM; sac 10 mM; suc 100 mM; stev 1 mM
T2 sequence (Q8TE23 20-839): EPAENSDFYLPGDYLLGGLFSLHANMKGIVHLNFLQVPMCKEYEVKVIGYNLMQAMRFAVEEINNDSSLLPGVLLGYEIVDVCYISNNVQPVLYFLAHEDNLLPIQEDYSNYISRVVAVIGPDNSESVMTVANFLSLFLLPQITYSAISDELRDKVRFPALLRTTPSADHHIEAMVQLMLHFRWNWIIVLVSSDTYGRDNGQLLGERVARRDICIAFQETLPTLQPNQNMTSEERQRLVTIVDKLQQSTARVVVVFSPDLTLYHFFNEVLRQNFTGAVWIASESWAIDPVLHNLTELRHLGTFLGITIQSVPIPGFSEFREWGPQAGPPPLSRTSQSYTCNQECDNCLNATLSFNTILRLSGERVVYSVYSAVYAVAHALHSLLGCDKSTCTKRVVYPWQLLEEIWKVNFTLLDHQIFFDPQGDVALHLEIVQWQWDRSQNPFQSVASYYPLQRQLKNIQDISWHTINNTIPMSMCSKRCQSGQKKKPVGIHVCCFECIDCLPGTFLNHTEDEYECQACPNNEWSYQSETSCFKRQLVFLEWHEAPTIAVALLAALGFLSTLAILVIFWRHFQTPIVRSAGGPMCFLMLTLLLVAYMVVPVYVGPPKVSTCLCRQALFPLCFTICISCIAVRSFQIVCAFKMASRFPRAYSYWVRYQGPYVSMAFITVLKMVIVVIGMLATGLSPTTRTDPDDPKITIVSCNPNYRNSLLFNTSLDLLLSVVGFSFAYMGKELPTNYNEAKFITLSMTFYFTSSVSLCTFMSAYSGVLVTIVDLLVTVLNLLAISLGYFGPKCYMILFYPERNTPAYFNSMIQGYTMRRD
T2 sequence (Q7RTX0 21-852): T1 sequence (Q7RTX0 21-852)

activation of receptor (calcium response) [1] | activation of receptor (calcium response) [2] | Compound
clearly responded | activated the human receptor | COc1ccc(CCC(=O)c2c(O)cc(O[C@@H]3O[C@H](CO)[C@@H](O)[C@H](O)[C@H]3O[C@@H]3O[C@@H](C)[C@H](O)[C@@H](O)[C@H]3O)cc2O)cc1O [neohesperidine dihydrochalcone]
failed to activate | activated the human receptor | OC[C@H]1O[C@@](CO)(O[C@H]2O[C@H](CO)[C@@H](O)[C@H](O)[C@H]2O)[C@@H](O)[C@@H]1O [sucrose]
clearly responded | activated the human receptor | O=S(=O)(O)NC1CCCCC1 [cyclamate]
failed to activate | activated the human receptor | C=C1C[C@@]23CC[C@H]4[C@@](C)(CCC[C@@]4(C)C(=O)O[C@@H]4O[C@H](CO)[C@@H](O)[C@H](O)[C@H]4O)[C@@H]2CC[C@]1(O[C@@H]1O[C@H](CO)[C@@H](O)[C@H](O)[C@H]1O[C@@H]1O[C@H](CO)[C@@H](O)[C@H](O)[C@H]1O)C3 [stevioside]
failed to activate | activated the human receptor | COC(=O)[C@H](Cc1ccccc1)NC(=O)[C@@H](N)CC(=O)O [aspartame] (HELM PEPTIDE1{D.F.[CO[*:1]]}$$$$V2.0)
